Patent US20140093884A1, “Process for Identifying Novel Anti-Inflammatory Molecules with Reduced Direct Transrepression of Genes Induced by Glucocorticoids” (UNIVERSITE DE STRASBOURG, priority 2011, published 2014)

How the values were obtained:
[1] = tested on: TSLP; assay: TSLP transcript levels in mouse ear epidermis after topical treatment (Q-RT-PCR); assay type: in vivo; details: WT mice, ears, topical
From the text: Mice. […] Real time PCR. Total RNA was reverse transcribed using hexamers, followed by Q-PCR, as reported (Li et al., 2005). The GC agonist fluocinolone acetonide (FA) was applied to ears of mice concomitantly treated with the “low-calcemic” Vitamin D3 (VitD3) analog MC903 (Calcipotriol; hereafter called MC) to trigger TSLP expression (Li et al., 2006). […] As expected, the expression of the GC-inducible GPX3 (glutathione peroxidase 3) gene which harbours a (+)GRE (Tuckermann et al., 1999) was enhanced by FA (FIG. 10) and inhibited by RU co-treatment, while FA or RU had no effect on MC-dependent expression of the CYP24A1 gene (a VitD3 target) (FIG. 10). […] Although the basal TSLP level was similar in vehicle-treated WT and GR^ep−/− mice, FA blocked MC-induced TSLP expression in WT, but not in GR^ep−/− mice (not shown).

[2] = tested on: GPX3 (glutathione peroxidase 3) gene, (+)GRE; assay: GPX3 transcript levels in mouse ear epidermis after topical treatment (Q-RT-PCR); assay type: in vivo; details: WT mice, ears, topical, FIG. 10
From the text: (§1) Mice. […] Real time PCR. Total RNA was reverse transcribed using hexamers, followed by Q-PCR, as reported (Li et al., 2005). The GC agonist fluocinolone acetonide (FA) was applied to ears of mice concomitantly treated with the “low-calcemic” Vitamin D3 (VitD3) analog MC903 (Calcipotriol; hereafter called MC) to trigger TSLP expression (Li et al., 2006). […] As expected, the expression of the GC-inducible GPX3 (glutathione peroxidase 3) gene which harbours a (+)GRE (Tuckermann et al., 1999) was enhanced by FA (FIG. 10) and inhibited by RU co-treatment, while FA or RU had no effect on MC-dependent expression of the CYP24A1 gene (a VitD3 target) (FIG. 10).

[3] = tested on: CYP24A1 gene (a VitD3 target); assay: CYP24A1 transcript levels in mouse ear epidermis after topical treatment (Q-RT-PCR); assay type: in vivo; details: mouse ears, FIG. 10
From the text: as §1

[4] = tested on: IR nGRE (pGL3(VDRE) IR1 nGRE luciferase reporter); assay: Luciferase reporter assay in A549 cells, pGL3(VDRE) IR nGRE plasmids; assay type: cell-based, human; details: pGL3(VDRE) IR1 nGRE
Protocol: Luciferase reporter assay. A549 cells seeded on 24-well tissue culture plates overnight at 70% confluency were transfected with 100 ng pCMV β galactosidase, 200 ng pGL3 reporter plasmids and wherever indicated, with 600 ng pSG5 hVDR plasmid (Green et al., 1988) into each well and maintained in medium containing charcoal treated FCS. 24 hours post-transfection, medium was changed and different compounds were added to it for 6 hours. […] Luciferase assay was carried out as instructed (Promega). Normalized values are reported as the mean±SEM; each value originates from at least three individual transfections with assays performed in duplicate.
To investigate whether additional DNA elements could be required to generate a repressing activity, the TSLP IR1 nGRE was inserted upstream of an enhancerless SV40 early promoter located 5′ to the luciferase coding sequence of pGL3 vector, A VDRE separated from the IR1 nGRE by a 314 bp-long DNA segment devoid of any known transregulator binding site (not shown) was inserted to generate a luciferase-expressing reporter plasmid (pGL3(VDRE) IR1 nGRE, FIG. 4), which was transfected into A549 cells, followed by addition of VitD3 and/or FA.
To investigate whether the 1 bp spacer between the inverted repeated motifs of TSLP IR1 nGRE was critical for its repressing function, pGL3-based luciferase plasmids containing the VDRE and TSLP nGRE motifs spaced by 0 to 5 bases (IR0 to IR5 nGREs) were transfected into A549 cells.

[5] = tested on: IR0 and IR2 nGRE containing genes; assay: Dex with RU co-administration, expression of IR0 and IR2 genes in epidermis, intestinal epithelium and liver; assay type: in vivo, mouse; details: Dex-treated mice, in all cases
Protocol: Mice. For topical treatment, 1 nmole (nm)/cm^2 MC903, at-RA or TPA; 6 nm/cm^2 FA, Dex or RU24858; and 90 nm/cm^2 RU486 were used. For systemic use, 100 ng/kg body weight active Vit D3, 8 mg/kg Dex and 64 mg/kg RU486 was intraperitoneally injected. GRdim mice were from the European Mouse Mutant Archives (EM:02123). Breeding, maintenance and experimental manipulation of mice were approved by the Animal Care and Use Committee of the IGBMC.

[6] = tested on: IR nGRE genes CCND1, PRKCB, FSTL1; details: mouse, in vivo
Protocol: (§2) Gene transcripts in epidermis of WT and GRdim mutant mice topically treated as indicated for 6 hours are analysed by Q-RT-PCR.
(§3) Note that epidermis was treated as indicated with TPA, to activate NFκB and AP1 factors.

[7] = tested on: Cox2 gene (NFκB and AP1 binding sites); assay: Q-RT-PCR of Cox2 in epidermis of WT and GRdim mice topically treated 6 hours (TPA-activated); details: mouse, in vivo
Protocol: as §2, §3

[8] = tested on: (+)GRE (PGL3(VDRE) (+)GRE luciferase reporter); assay: Luciferase reporter assay in A549 cells, PGL3(VDRE) (+)GRE vector; assay type: cell-based, human; details: compared with Dex
Protocol: (§4) Luciferase reporter assay. A549 cells seeded on 24-well tissue culture plates overnight at 70% confluency were transfected with 100 ng pCMV β galactosidase, 200 ng pGL3 reporter plasmids and wherever indicated, with 600 ng pSG5 hVDR plasmid (Green et al., 1988) into each well and maintained in medium containing charcoal treated FCS. 24 hours post-transfection, medium was changed and different compounds were added to it for 6 hours. Final concentrations of the compounds are: FA, 500 nM; Dex or RU24858, 300 nM or 500 nM (wherever 300 nM Dex or RU was used, it is indicated in the figure, in all other cases, 500 nM concentration was used); active vitamin D3, 1 μM; IL-1β, 5 ng/ml; BAY 11-7082, 5 μM, JNK inhibitor II, 25 μM. Luciferase assay was carried out as instructed (Promega). Normalized values are reported as the mean±SEM; each value originates from at least three individual transfections with assays performed in duplicate. […]

[9] = tested on: NFκB-driven transcription (PGL4-NFκB vector); assay: Luciferase assay in IL-1β-activated A549 cells transfected with PGL4-NFκB; assay type: cell-based, human; details: 6 hours, FIG. 15A left panel
Protocol: (§5) A549 cells transfected with PGL4-NFκB (NFκBluc plasmid) of SEQ ID NO:56 and PGL4-AP1 (AP1luc plasmid) of SEQ ID NO:55 were treated as indicated for 6 hours, followed by luciferase assay. “BAY”=NFκB-specific inhibitor BAY 11-7082 and “JNK inhibit”=JNK inhibitor II). • B) Q-RT-PCR of gene transcripts from WT dorsal epidermis topically-treated with Dexamethasone or RU24858 for 18 hours (left panel) and from liver of WT mice IP-injected with Dexamethasone or RU24858 for 18 hours (right panel).
as §4, with “(Promega).” for “(Promega). Normalized values are reported as the mean±SEM; each value originates from at least three individual transfections with assays performed in duplicate.”

[10] = tested on: AP1-driven transcription (PGL4-AP1 vector); assay: Luciferase assay in IL-1β-activated A549 cells transfected with PGL4-AP1; assay type: cell-based, human; details: 6 hours, FIG. 15A right panel
Protocol: as §5
as §4, with “(Promega).” for “(Promega). Normalized values are reported as the mean±SEM; each value originates from at least three individual transfections with assays performed in duplicate.”

[11] = target: T1, repressing complex tethered to NFκB (Homo sapiens, UniProt P04150); assay: ChIP of repressing complex tethered to NFκB on PGL4-NFκB vector in A549 cells; assay type: cell-based
T1 construct: GR-expressing cells are in vitro cultured cells, preferably human lung epithelial carcinoma cells A549; endogenous in cells; host or cells: A549 (CCL-185, ATCC)
T1 sequence (P04150 1-777): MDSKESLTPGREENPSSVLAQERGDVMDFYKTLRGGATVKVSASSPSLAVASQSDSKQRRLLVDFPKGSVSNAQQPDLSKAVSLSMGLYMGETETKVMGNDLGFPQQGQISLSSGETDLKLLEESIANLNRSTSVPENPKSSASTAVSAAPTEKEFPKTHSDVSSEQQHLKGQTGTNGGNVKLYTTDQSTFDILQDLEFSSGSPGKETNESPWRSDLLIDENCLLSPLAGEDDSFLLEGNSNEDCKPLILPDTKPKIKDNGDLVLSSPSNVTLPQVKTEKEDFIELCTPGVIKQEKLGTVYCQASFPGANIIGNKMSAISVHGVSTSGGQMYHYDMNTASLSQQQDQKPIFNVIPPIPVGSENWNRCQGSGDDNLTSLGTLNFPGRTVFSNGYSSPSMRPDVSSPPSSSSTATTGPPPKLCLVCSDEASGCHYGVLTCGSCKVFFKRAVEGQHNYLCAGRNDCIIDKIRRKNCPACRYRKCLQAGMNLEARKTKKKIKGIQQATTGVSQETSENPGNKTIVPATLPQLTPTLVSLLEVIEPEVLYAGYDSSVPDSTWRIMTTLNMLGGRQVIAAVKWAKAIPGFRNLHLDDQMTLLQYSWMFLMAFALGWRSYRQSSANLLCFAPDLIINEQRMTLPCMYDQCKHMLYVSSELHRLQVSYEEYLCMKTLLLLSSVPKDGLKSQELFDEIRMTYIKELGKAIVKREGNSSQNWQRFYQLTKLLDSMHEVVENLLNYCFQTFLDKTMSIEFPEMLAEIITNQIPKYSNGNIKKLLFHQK
Protocol: For ChIP assays to test GR and cofactor binding to the nGRE, +GRE or NFκB region of various luciferase reporter plasmids, ˜60% confluent A549 cells in 100 mm TC dish were transfected with 2 μg of respective plasmids using fugene 6 reagent (Roche) and maintained in charcoal treated FCS containing medium. 44 hours post-transfection, 500 nM FA or Dex or RU24858 and/or 5 μM RU486, 5 ng/ml IL-1β (final conc.) was added to the medium for 2 hours, followed by formaldehyde treatment and processing as described above.

[12] = tested on: (+)GRE-containing GPX3 gene; assay: GPX3 expression in mouse epidermis after topical RU24858; assay type: in vivo
From the text: (§6) Real time PCR. Total RNA was reverse transcribed using hexamers, followed by Q-PCR, as reported (Li et al., 2005).
(§7) The “activity profile” of RU24858 was also investigated in vivo.

[13] = tested on: (+)GRE-containing GGT1 and ERP27 genes; assay: GGT1 and ERP27 expression in mouse liver after RU24858; assay type: in vivo
From the text: as §6, §7

[14] = tested on: genes of which the skin expression was enhanced by topical TPA treatment; assay: Down-regulation of TPA-enhanced genes in mouse skin (NFκB-mediated tethered transrepression); assay type: in vivo; details: compared with Dex
From the text: as §7

[15] = tested on: IR0, IR1 and IR2 nGRE-containing genes; assay: Q-RT-PCR of IR nGRE-containing genes in WT mouse epidermis or liver after Dexamethasone or RU24858 for 18 hours; details: in vivo, FIG. 15B, compared with Dex
Protocol: as §5, §6, §7

[16] = target: T2, GR complexes on (+)GRE and nGRE regions (Mus musculus, UniProt P06537); assay: ChIP in vivo after RU24858 treatment
T2 construct: from tissue; host or cells: mouse epidermis, pancreas, liver
From the text: as §7

[17] = target: T3, GR (Homo sapiens, UniProt P04150); details: cited from earlier work
T3 sequence (P04150 1-777): T1 sequence (P04150 1-777)

[18] = target: T3, GR; details: cited from earlier work; remark: listed apart in the source

For CC#C[C@]1(O)CC[C@H]2[C@@H]3CCC4=CC(=O)CCC4=C3[C@@H](c3ccc(N(C)C)cc3)C[C@@]21C [RU486, mifepristone], the “FA block of MC-induced TSLP RNA upon RU co-treatment” value [1] was “restored”, the “FA-induced inhibition of basal TSLP RNA level upon co-application of RU486” value [1] was “relieved” and the “FA-enhanced GPX3 expression upon RU co-treatment” value [2] was “inhibited”. The “effect on MC-dependent expression of the CYP24A1 gene” value [3] was “no effect”, the “FA-induced decrease of luciferase expression (IR1 nGRE) upon RU addition” value [4] was “prevented” and the “GC-induced repression of IR0 and IR2 genes upon co-administration of RU” value [5] was “relieved”. The “effect of Dex treatment on IR nGRE-mediated transrepression upon excess RU co-treatment” value [6] was “reverted” and the “effect of RU on NFκB/AP1-mediated tethered transrepression” value [7] was “little effect”.
In the case of C[C@@H]1C[C@H]2[C@@H]3CCC4=CC(=O)C=C[C@]4(C)[C@@]3(F)[C@@H](O)C[C@]2(C)[C@H]1C(=O)CC#N [RU24858], the “inducing transactivation of (+)GRE pGL3 luciferase plasmid” value [8] is reported as “much less efficient than Dex”, the “repression of IL1β-induced activation of transcription by NFκB” value [9] is reported as “almost as efficient as Dex” and the “repression of IL1β-induced activation of transcription by AP1” value [10] is reported as “almost as efficient as Dex”. The “recruiting a repressing complex tethered to NFκB bound to its cognate element” value [11] was “as efficient as Dex”, the “GC-dependent expression of the (+)GRE-containing GPX3 gene” value [12] was “did not activate” and the “GC-dependent expression of the ERP27 gene” value [13] was “did not activate”. For the same compound, the “GC-dependent expression of the GGT1 gene” value [13] was “did not activate”, the “down-regulating, through NFκB-mediated tethered transrepression, genes enhanced by topical TPA” value [14] was “as efficient as Dex” and the “transrepression of IR0 nGRE gene CCND1” value [15] was “as efficient as Dex”. For the same compound, the “transrepression of IR1 nGRE gene CYP26A1” value [15] was “as efficient as Dex”, the “transrepression of IR1 nGRE gene K14” value [15] was “as efficient as Dex” and the “transrepression of IR1 nGRE gene PRKCB” value [15] was “as efficient as Dex”. The “transrepression of IR1 nGRE gene TSLP” value [15] was “as efficient as Dex”, the “transrepression of IR2 nGRE gene DPAGT1” value [15] was “as efficient as Dex” and the “GR-SMRT/NCoR repressing complexes on nGRE regions” value [16] was “recruitment of GR-SMRT/NCoR repressing complexes”. The “assembly of an activating complex on (+)GRE of GPX3, GGT1 and ERP27” value [16] was “did not induce assembly of an activating complex”, the “dissociated profile (tethered indirect transrepression vs direct transactivation) in vitro” value [17] was “exhibit the expected dissociated profile in vitro” and the “dissociation upon administration in vivo” value [18] was “failed to confirm this dissociation”.
